Results: the NIST ThermoML archive (doi:10.1021/je800312g)
Where “and” joins values, the source holds several entries; their conditions need not be identical. Identical values can stand only once. Numbers after ± are expanded uncertainties.

Details: Fluid (supercritical or subcritical phases), Impulsive stimulated scattering

N [ammonia]
Details | speed of sound
297 K, 620000 kPa | 2741 ± 12 m/s
297 K, 700000 kPa | 2836 ± 12 m/s
297 K, 780000 kPa | 2942 ± 12 m/s and 2932 ± 12 m/s
297 K, 880000 kPa | 3023 ± 12 m/s
297 K, 970000 kPa | 3113 ± 13 m/s
298 K, 370000 kPa | 2376 ± 11 m/s
298 K, 740000 kPa | 2903 ± 12 m/s
474 K, 1430000 kPa | 3280 ± 13 m/s
476 K, 1550000 kPa | 3375 ± 14 m/s
476 K, 2200000 kPa | 3788 ± 15 m/s
477 K, 1090000 kPa | 2954 ± 12 m/s
479 K, 2220000 kPa | 3797 ± 18 m/s
678 K, 2920000 kPa | 4000 ± 16 m/s
678 K, 3080000 kPa | 4072 ± 16 m/s
678 K, 3140000 kPa | 4103 ± 17 m/s
679 K, 1480000 kPa | 3084 ± 13 m/s
679 K, 2440000 kPa | 3740 ± 15 m/s
679 K, 3750000 kPa | 4342 ± 17 m/s
680 K, 1350000 kPa | 2982 ± 12 m/s and 2970 ± 12 m/s
